Our source for the inhibition, IC50 and Activity values is ChEMBL document CHEMBL3779880, “In silico to in vitro screening of hydroxypyridinones as acetylcholinesterase inhibitors” (Bioorg Med Chem Lett, 2016).

Activity calls are given as the source filed them. No cut-off for these calls is given here.

Data set [1] concerns the target Acetylcholinesterase (Electrophorus electricus) (UniProt O42275). In words: Reversible inhibition of electric eel AChE at 554 mM after 5 to 60 mins followed by addition of acetylthiocholine iodide by Ellman's method.
The target is the same in data set [2]. Nature of the data set: Reversible inhibition of electric eel AChE incubated for 1 and 24 hrs by ESI-MS and TLC method.
Data set [3] concerns the target Acetylcholinesterase (Electrophorus electricus, UniProt O42275).
Description: Inhibition of electric eel AChE using acetylthiocholine iodide as substrate by Ellman's method
The nature of data set [4]: Metal chelating activity assessed as Fe3+/compound complex formation incubated with electric eel AChE for 1 and 24 hrs measured over 60 mins by TLC analysis. It is filed as physicochemical.
In data set [5] the target is Acetylcholinesterase (Electrophorus electricus) (UniProt O42275). Nature of the data set: Reversible inhibition of electric eel AChE at 92 mM after 5 to 60 mins followed by addition of acetylthiocholine iodide by Ellman's method.
Chain of Acetylcholinesterase (Electrophorus electricus) (O42275 24-633 limits assumed): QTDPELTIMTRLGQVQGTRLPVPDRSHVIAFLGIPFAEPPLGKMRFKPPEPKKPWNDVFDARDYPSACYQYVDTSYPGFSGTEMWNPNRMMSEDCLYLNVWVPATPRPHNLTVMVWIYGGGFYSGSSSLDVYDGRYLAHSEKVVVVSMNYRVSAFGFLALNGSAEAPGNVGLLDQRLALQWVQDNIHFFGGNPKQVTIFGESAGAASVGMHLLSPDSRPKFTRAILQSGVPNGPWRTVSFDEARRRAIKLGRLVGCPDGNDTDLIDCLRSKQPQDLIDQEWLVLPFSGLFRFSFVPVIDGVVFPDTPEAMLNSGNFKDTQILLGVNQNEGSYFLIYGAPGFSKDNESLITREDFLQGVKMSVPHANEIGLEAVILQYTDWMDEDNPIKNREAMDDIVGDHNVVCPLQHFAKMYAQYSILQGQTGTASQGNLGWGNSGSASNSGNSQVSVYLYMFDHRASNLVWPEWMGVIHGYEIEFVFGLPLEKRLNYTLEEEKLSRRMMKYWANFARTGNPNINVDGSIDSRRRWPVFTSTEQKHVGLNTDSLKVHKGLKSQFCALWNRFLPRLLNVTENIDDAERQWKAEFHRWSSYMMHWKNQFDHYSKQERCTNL

Chain of Acetylcholinesterase (O42275 whole entry): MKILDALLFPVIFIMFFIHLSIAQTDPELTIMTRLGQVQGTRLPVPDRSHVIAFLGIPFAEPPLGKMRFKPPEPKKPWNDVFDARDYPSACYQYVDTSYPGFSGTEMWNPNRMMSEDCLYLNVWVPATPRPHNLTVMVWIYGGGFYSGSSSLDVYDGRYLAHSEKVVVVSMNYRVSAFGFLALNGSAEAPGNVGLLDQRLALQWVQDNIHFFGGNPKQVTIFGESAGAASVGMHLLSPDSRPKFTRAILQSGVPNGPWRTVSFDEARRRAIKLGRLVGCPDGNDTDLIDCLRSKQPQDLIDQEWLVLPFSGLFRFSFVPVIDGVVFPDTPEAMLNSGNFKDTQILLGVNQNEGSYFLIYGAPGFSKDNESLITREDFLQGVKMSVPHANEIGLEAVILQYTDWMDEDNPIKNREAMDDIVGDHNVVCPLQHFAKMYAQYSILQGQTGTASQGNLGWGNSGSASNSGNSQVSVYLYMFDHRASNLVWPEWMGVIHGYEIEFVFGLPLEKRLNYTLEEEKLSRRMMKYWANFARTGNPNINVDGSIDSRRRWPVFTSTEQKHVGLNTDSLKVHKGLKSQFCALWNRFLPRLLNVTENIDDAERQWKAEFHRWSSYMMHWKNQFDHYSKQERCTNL

As to `Cc1c(OCc2ccc(OC(=O)N(C)C)cc2)c(=O)ccn1-c1ccccc1`, the inhibition entry in data set [1] and in data set [2] was “Active” in each case. Half-maximal inhibition in data set [3] (IC50) was put at 217 µM.
In the case of `Cc1c(O)c(=O)ccn1-c1ccc(OC(=O)N(C)C)cc1`, in data set [4], the result was Active. The inhibition entry in data set [5] and in data set [2] was “Active” throughout. Moreover, in data set [3], the IC50 is 348 µM.
With `Cc1ccc(OC(=O)N(C)C)cc1` [P-TOLYL DIMETHYLCARBAMATE], the IC50 in data set [3] came to 1280 µM.
